From EPA's ToxRefDB 2

How the values were obtained:
rat [1] = conditions: Subchronic oral toxicity in rodents, sprague dawley, Water, dose end: 90 day, group: systemic
mouse [2] = conditions: Combined chronic toxicity/carcinogenicity; b6c3f1; Oral; Gavage/Intubation; dose end: 52 week; group: systemic; systemic / organ weight / liver / absolute + systemic / organ weight / liver / relative to body weight + systemic / pathology microscopic / …
rat [3] = conditions: Combined chronic toxicity/carcinogenicity; fischer; Inhalation; Whole-Body; dose end: 103 week; group: systemic; systemic / pathology microscopic / larynx / metaplasia + systemic / pathology microscopic / nose / pigmentation + systemic / pathology …
rat [4] = conditions: Subchronic inhalation toxicity, sprague dawley, Whole-Body, dose end: 13 week, group: systemic, systemic / hematology / erythrocyte (rbc) count differential / erythrocyte (rbc) + systemic / hematology / hemoglobin (hgb) / hemoglobin (…
rat [5] = conditions: Subchronic oral toxicity in rodents, fischer, Gavage/Intubation, dose end: 13 week, group: systemic
mouse [6] = conditions: Subchronic oral toxicity in rodents, b6c3f1, Gavage/Intubation, dose end: 13 week, group: systemic
mouse [7] = conditions: Combined chronic toxicity/carcinogenicity, b6c3f1, Inhalation, Whole-Body, dose end: 103 week, group: systemic
rabbit = conditions: Prenatal developmental toxicity study, new zealand white, Oral, Gavage/Intubation, dose end: 18 GD
rat [8] = conditions: Prenatal developmental toxicity study, wistar, Oral, Gavage/Intubation, dose end: 16 GD
rat [9] = conditions: Multigenerational reproductive toxicity study, sprague dawley, Oral, Feed, dose end: 2 generation
dog [10] = conditions: Chronic toxicity; beagle; Oral; Feed; dose end: 104 week; group: systemic; systemic / hematology / [other] / [other] + systemic / hematology / eosinophils / eosinophils + systemic / hematology / erythroblast / …
dog [11] = conditions: Subchronic oral toxicity in nonrodent, beagle, Feed, dose end: 90 day
[12] = systemic / clinical chemistry / alanine aminotransferase (alt/sgpt) / alanine aminotransferase (alt/sgpt) + systemic / clinical chemistry / …
[13] = systemic / clinical chemistry / protein / protein
[14] = systemic / in life observation / body weight / body weight gain + systemic / in life observation / clinical signs / fur (altered appearance…
[15] = systemic / organ weight / kidney / relative to brain weight + systemic / organ weight / liver / relative to brain weight
[16] = systemic / pathology microscopic / nose / pigmentation + systemic / pathology microscopic / trachea / pigmentation
[17] = group: developmental, developmental / developmental malformation / bone / malformation, total
[18] = group: maternal, systemic / in life observation / body weight / body weight gain + systemic / in life observation / clinical signs / defecation (diarrhea) + …
[19] = group: developmental, developmental / developmental malformation / bone / [other] + developmental / developmental malformation / bone / bipartite ossification + …
[20] = group: maternal, systemic / in life observation / body weight / body weight gain + systemic / in life observation / food consumption / food consumption
[21] = group: offspring, systemic / in life observation / body weight / offspring (pup) weight
[22] = group: parental, systemic / in life observation / body weight / body weight gain + systemic / in life observation / food consumption / food consumption + …
[23] = group: cholinesterase, cholinesterase / cholinesterase / cholinesterase / plasma cholinesterase (che) + cholinesterase / cholinesterase / cholinesterase / …
[24] = group: systemic, systemic / hematology / [other] / [other] + systemic / hematology / erythroblast / erythroblast + systemic / hematology / lymphocyte / …

`O=C(O)C(Cl)Cl` [Dichloroacetic acid] was tested, and the LOAEL (rat [1]; [12]) was greater than 345 mg/kg/day, the NOAEL (rat [1]; [12]) was no less than 345 mg/kg/day and the LEL (rat [1]; [13]) was 3.9 mg/kg/day. It also gave an NEL (rat [1]; [13]) of less than 3.9 mg/kg/day, an LEL (mouse [2]) of 133 mg/kg/day and an LOAEL (mouse [2]) greater than 267 mg/kg/day. For the same compound, the NEL (mouse [2]) was less than 133 mg/kg/day and the NOAEL (mouse [2]) was no less than 267 mg/kg/day.
`ClC1=C(Cl)C(Cl)(Cl)C(Cl)=C1Cl` [Hexachlorocyclopentadiene] was tested, and the LEL (rat [3]) was 0.01 ppm, the LOAEL (rat [3]) was greater than 0.2 ppm and the NEL (rat [3]) was less than 0.01 ppm. The NOAEL (rat [3]) was no less than 0.2 ppm, the LEL (rat [4]) was 0.01 ppm and the LOAEL (rat [4]) was greater than 0.2 ppm. It also gave an NEL (rat [4]) of less than 0.01 ppm, an NOAEL (rat [4]) of no less than 0.2 ppm and an LOAEL (rat [5]; [14]) greater than 150 mg/kg/day. It also gave an NEL (rat [5]; [14]) of 10 mg/kg/day, an NOAEL (rat [5]; [14]) of no less than 150 mg/kg/day and an LEL (rat [5]; systemic / pathology microscopic / stomach / hyperplasia + systemic / pathology microscopic / stomach / inflammation) of 19 mg/kg/day. For the same compound, the LOAEL (mouse [6]; [14]) was greater than 300 mg/kg/day, the NOAEL (mouse [6]; [14]) was no less than 300 mg/kg/day and the LEL (mouse [6]; [15]) was 19 mg/kg/day. The NEL (mouse [6]; [15]) was less than 19 mg/kg/day, the LOAEL (mouse [7]; systemic / in life observation / body weight / body weight + systemic / pathology microscopic / nose / inflammation) was 0.2 ppm and the NOAEL (mouse [7]; systemic / in life observation / body weight / body weight + systemic / pathology microscopic / nose / inflammation + systemic / pathology …) was 0.05 ppm. For the same compound, the LEL (mouse [7]; [16]) was 0.01 ppm, the NEL (mouse [7]; [16]) was less than 0.01 ppm and the LEL (rabbit; [17]) was 75 mg/kg/day. The LOAEL (rabbit; [17]) was greater than 75 mg/kg/day, the NEL (rabbit; [17]) was 25 mg/kg/day and the NOAEL (rabbit; [17]) was no less than 75 mg/kg/day. It also gave an LEL (rabbit; [18]) of 75 mg/kg/day, an LOAEL (rabbit; [18]) of 75 mg/kg/day and an NEL (rabbit; [18]) of 25 mg/kg/day. The NOAEL (rabbit; [18]) was 25 mg/kg/day.
`Cc1nc(N(C)C)nc(OC(=O)N(C)C)c1C` [Pirimicarb] was tested, and the LEL (rat [8]; [19]) was 75 mg/kg/day, the LOAEL (rat [8]; [19]) was 75 mg/kg/day and the NEL (rat [8]; [19]) was 25 mg/kg/day. The NOAEL (rat [8]; [19]) was 25 mg/kg/day, the LEL (rat [8]; [20]) was 75 mg/kg/day and the LOAEL (rat [8]; [20]) was 75 mg/kg/day. It also gave an NEL (rat [8]; [20]) of 25 mg/kg/day, an NOAEL (rat [8]; [20]) of 25 mg/kg/day and an LEL (rat [9]; [21]) of 90.1 mg/kg/day. For the same compound, the LOAEL (rat [9]; [21]) was 90.1 mg/kg/day, the NEL (rat [9]; [21]) was 23.2 mg/kg/day and the NOAEL (rat [9]; [21]) was 23.2 mg/kg/day. For the same compound, the LEL (rat [9]; [22]) was 81.8 mg/kg/day, the LOAEL (rat [9]; [22]) was 81.8 mg/kg/day and the NEL (rat [9]; [22]) was 21.7 mg/kg/day. The NOAEL (rat [9]; [22]) was 21.7 mg/kg/day, the LEL (dog [10]) was 4 mg/kg/day and the LOAEL (dog [10]) was 4 mg/kg/day. For the same compound, the NEL (dog [10]) was 1.8 mg/kg/day, the NOAEL (dog [10]) was 1.8 mg/kg/day and the LEL (dog [11]; [23]) was 10 mg/kg/day. It also gave an LOAEL (dog [11]; [23]) of 10 mg/kg/day, an NEL (dog [11]; [23]) of 4 mg/kg/day and an NOAEL (dog [11]; [23]) of 4 mg/kg/day. It also gave an LEL (dog [11]; [24]) of 4 mg/kg/day, an LOAEL (dog [11]; [24]) of 4 mg/kg/day and an NEL (dog [11]; [24]) of 1.8 mg/kg/day. It also gave an NOAEL (dog [11]; [24]) of 1.8 mg/kg/day.
